Data taken from patent US9284271B2, “Compounds for the treatment of neurodegenerative diseases” (Katholieke Universiteit Leuven, K.U. Leuven R&D, priority 2010, dated 2016).

These compounds were tested on M17-TAU P301L cells (assay: Tau-induced toxicity experiment: LDH leakage of retinoic acid incubated M17-TAU P301L cells). Conditions: Homo sapiens, Neuroblastoma cell, 168 h; reduction of LDH activity of retinoic acid incubated M17-TAU P301L neuroblastoma cells; 7 days incubation; Promega Cytotox 96 assay.
Assay type: cell-based
Description: A TAU expression plasmid was constructed by sub-cloning the cDNA of human TAU-P301L (encoding for TAU with proline 301 substituted by a leucine residue) into mammalian expression vector pcDNA3.1 resulting in plasmid pcDNA3.1-TAU P301L. Plasmids pcDNA3.1 and pcDNA3.1-TAU P301L were transfected to human neuroblastoma cells ([…]; ATCC No. CRL-2267) and independent clonal lines with the plasmids stably integrated into the genome were selected. […] Expression of the TAU P301L genes in the cell lines was confirmed by Western analysis.
In degenerated or dead cells lactate dehydrogenase (LDH) is leaked out of the cells into the extracellular environment due to a loss of plasma-membrane integrity. This principle was used to determine cytotoxicity by quantifying the level of leaked LDH into the growth medium.
The detailed method for determining TAU cytotoxicity was as follows: From appropriate precultures of M17-3.1 and M17-TAU(P301L) cells were seeded at 2500 cells/cm2 in Optimem Reduced Serum without phenol red (Gibco, Cat. 31985-047) supplemented with 1% fetal calf serum, 1 mM sodium pyruvate, 1× non-essential amino acids, 500 μg/ml G418 0.5× antibiotic/antimycotic. After 3 h of incubation at 37° C./5% CO2 1 volume of Optimem Reduced Serum (same as described above; except without fetal calf serum) supplemented with 2.5 μM retinoic acid (RA) was added. The cells were further incubated for 7 days. Subsequently, LDH activity was determined using Promega Cytotox 96 Non-Radioactive cytotoxicity assay, (Cat. G1780) according the supplier's instructions.
The M17-TAU P301L cell line made it possible to assess the ability of novel compounds to counteract TAU cytotoxicity. […] These measurements were used to calculate EC50 values of table 2.
Exemplary compounds of the present invention are shown in table 2, with their chemical name and their EC50 value (expressed in nM) as determined from example 75 in the Tau-induced toxicity experiment.

Which EC50 does the source give for O=C(NCCc1c[nH]c2ccc(Cl)cc12)c1cccc(-c2cccc(F)c2)c1 [Cpd047, N-(2-(5-chloro-1H-indol-3-yl)ethyl)-3′-fluorobiphenyl-3-carboxamide] here?
Its EC50 is 408 nM.

With Cc1cccc(-c2cccc(C(=O)NCCc3c[nH]c4ccc(Cl)cc34)c2)c1 [Cpd019, N-(2-(5-chloro-1H-indol-3-yl)ethyl)-3′-methylbiphenyl-3-carboxamide] as the compound, how does the EC50 read?
Its EC50 is 709 nM.

O=C(NCCc1c[nH]c2ccc(Cl)cc12)c1cccc(-c2ccc(O)cc2)c1 [Cpd013, N-(2-(5-chloro-1H-indol-3-yl)ethyl)-4′-hydroxybiphenyl-3-carboxamide] was tested. Which EC50 did it give?
The EC50 was 77 nM.

O=C(NCCc1c[nH]c2ccc(Cl)cc12)c1cccc(-c2ccc(C(F)(F)F)cc2)c1 [Cpd068, N-(2-(5-chloro-1H-indol-3-yl)ethyl)-4′-(trifluoromethyl)biphenyl-3-carboxamide] was tested. Which EC50 did it give?
Its EC50 is 367 nM.

Which EC50 does the source give for O=C(NCCc1c[nH]c2ccc(Cl)cc12)c1cccc(-c2ccccc2C(F)(F)F)c1 [Cpd065, N-(2-(5-chloro-1H-indol-3-yl)ethyl)-2′-(trifluoromethyl)biphenyl-3-carboxamide] here?
Its EC50 is 89 nM.

For O=C(NCCc1c[nH]c2ccc(Cl)cc12)c1ccc(-c2ccc(C(F)(F)F)cc2)cc1 [Cpd074, N-(2-(5-chloro-1H-indol-3-yl)ethyl)-4′-(trifluoromethyl)biphenyl-4-carboxamide], which EC50 is on record?
Its EC50 is 200 nM.

Which EC50 does the source give for N#Cc1ccc(-c2ccc(C(=O)NCCc3c[nH]c4ccc(Cl)cc34)cc2)cc1 [Cpd053, N-(2-(5-chloro-1H-indol-3-yl)ethyl)-4′-cyanobiphenyl-4-carboxamide] here?
Its EC50 is 85 nM.

How did the EC50 turn out when O=C(NCCc1c[nH]c2ccc(Cl)cc12)c1ccccc1-c1cccc(F)c1 [Cpd038, N-(2-(5-chloro-1H-indol-3-yl)ethyl)-3′-fluorobiphenyl-2-carboxamide] was run?
The EC50 was 226 nM.

Which EC50 does the source give for O=C(NCCc1c[nH]c2ccc(Cl)cc12)c1cccc(-c2ccc(F)cc2)c1 [Cpd041, N-(2-(5-chloro-1H-indol-3-yl)ethyl)-4′-fluorobiphenyl-3-carboxamide] here?
Its EC50 is 186 nM.

With O=C(NCCc1c[nH]c2ccc(Cl)cc12)c1ccccc1-c1ccccc1 [Cpd008, N-(2-(5-chloro-1H-indol-3-yl)ethyl)biphenyl-2-carboxamide] as the compound, how does the EC50 read?
Its EC50 is 249 nM.

For Cc1cccc(C)c1-c1cccc(C(=O)NCCc2c[nH]c3ccc(Cl)cc23)c1 [Cpd070, N-(2-(5-chloro-1H-indol-3-yl)ethyl)-2′,6′-dimethylbiphenyl-3-carboxamide], which EC50 is on record?
Its EC50 is 606 nM.

O=C(NCCc1c[nH]c2ccc(Cl)cc12)c1cccc(-c2ccncc2)c1 [Cpd045, N-(2-(5-chloro-1H-indol-3-yl)ethyl)-3-(pyridin-4-yl)benzamide] was tested. Which EC50 did it give?
Its EC50 is 327 nM.

With O=C(NCCc1c[nH]c2ccc(Cl)cc12)c1ccc(-c2ccccc2F)cc1 [Cpd037, N-(2-(5-chloro-1H-indol-3-yl)ethyl)-2′-fluorobiphenyl-4-carboxamide] as the compound, how does the EC50 read?
The EC50 was 61 nM.

How did the EC50 turn out when O=C(NCCc1c[nH]c2ccc(Cl)cc12)c1ccccc1-c1ccccc1F [Cpd035, N-(2-(5-chloro-1H-indol-3-yl)ethyl)-2′-fluorobiphenyl-2-carboxamide] was run?
Its EC50 is 165 nM.

With O=C(NCCc1c[nH]c2ccc(Cl)cc12)c1ccc(-c2cccc(F)c2)cc1 [Cpd039, N-(2-(5-chloro-1H-indol-3-yl)ethyl)-3′-fluorobiphenyl-4-carboxamide] as the compound, how does the EC50 read?
Its EC50 is 139 nM.

How did the EC50 turn out when O=C(NCCc1c[nH]c2ccc(Cl)cc12)c1cccc(-c2ccccc2F)c1 [Cpd036, N-(2-(5-chloro-1H-indol-3-yl)ethyl)-2′-fluorobiphenyl-3-carboxamide] was run?
Its EC50 is 139 nM.

For O=C(NCCc1c[nH]c2ccc(Cl)cc12)c1ccc(N2CCOCC2)nc1 [Cpd024, N-(2-(5-chloro-1H-indol-3-yl)ethyl)-6-morpholinonicotinamide], which EC50 is on record?
The EC50 was 765 nM.

Which EC50 does the source give for Cc1ccc2[nH]cc(CCNC(=O)c3ccc(-c4ccccc4)cc3)c2c1 [Cpd004, N-(2-(5-methyl-1H-indol-3-yl)ethyl)biphenyl-4-carboxamide] here?
Its EC50 is 238 nM.

Which EC50 does the source give for O=C(NCCc1c[nH]c2ccc(Cl)cc12)c1ccccc1-n1cccn1 [Cpd025, N-(2-(5-chloro-1H-indol-3-yl)ethyl)-2-(1H-pyrazol-1-yl)benzamide] here?
Its EC50 is 760 nM.

With Cc1ccc(-c2ccc(C(=O)NCCc3c[nH]c4ccc(Cl)cc34)cc2)cc1 [Cpd023, N-(2-(5-chloro-1H-indol-3-yl)ethyl)-4′-methylbiphenyl-4-carboxamide] as the compound, how does the EC50 read?
The EC50 was 235 nM.

With O=C(NCCc1c[nH]c2ccc(Cl)cc12)c1ccccc1-c1ccc(F)cc1 [Cpd040, N-(2-(5-chloro-1H-indol-3-yl)ethyl)-4′-fluorobiphenyl-2-carboxamide] as the compound, how does the EC50 read?
Its EC50 is 208 nM.

How did the EC50 turn out when O=C(NCCc1c[nH]c2ccc(Cl)cc12)c1ccccc1-c1cccc(C(F)(F)F)c1 [Cpd064, N-(2-(5-chloro-1H-indol-3-yl)ethyl)-3′-(trifluoromethyl)biphenyl-2-carboxamide] was run?
Its EC50 is 418 nM.

With Cc1ccc(-c2ccccc2C(=O)NCCc2c[nH]c3ccc(Cl)cc23)cc1 [Cpd021, N-(2-(5-chloro-1H-indol-3-yl)ethyl)-4′-methylbiphenyl-2-carboxamide] as the compound, how does the EC50 read?
The EC50 was 237 nM.

How did the EC50 turn out when O=C(NCCc1c[nH]c2ccc(Cl)cc12)c1cccc(-c2ccccc2)c1 [Cpd010, N-(2-(5-chloro-1H-indol-3-yl)ethyl)biphenyl-3-carboxamide] was run?
The EC50 was 187 nM.

With O=C(NCCc1c[nH]c2ccc(Cl)cc12)c1ccnc(N2CCOCC2)c1 [Cpd006, N-(2-(5-chloro-1H-indol-3-yl)ethyl)-2-morpholinoisonicotinamide] as the compound, how does the EC50 read?
Its EC50 is 876 nM.

How did the EC50 turn out when Cc1ccc(-c2cccc(C(=O)NCCc3c[nH]c4ccc(Cl)cc34)c2)cc1 [Cpd022, N-(2-(5-chloro-1H-indol-3-yl)ethyl)-4′-methylbiphenyl-3-carboxamide] was run?
Its EC50 is 354 nM.

For N#Cc1ccc(-c2ccccc2C(=O)NCCc2c[nH]c3ccc(Cl)cc23)cc1 [Cpd051, N-(2-(5-chloro-1H-indol-3-yl)ethyl)-4′-cyanobiphenyl-2-carboxamide], which EC50 is on record?
The EC50 was 325 nM.

With CCOC(=O)c1cnn(-c2ccc(C(=O)NCCc3c[nH]c4ccc(C)cc34)cc2)c1N [Cpd005, ethyl 5-amino-1-(4-(2-(5-methyl-1H-indol-3-yl)ethylcarbamoyl)phenyl)-1H-pyrazole-4-carboxylate] as the compound, how does the EC50 read?
Its EC50 is 297 nM.

With Cc1cccc(C)c1-c1ccc(C(=O)NCCc2c[nH]c3ccc(Cl)cc23)cc1 [Cpd011, N-(2-(5-chloro-1H-indol-3-yl)ethyl)-2′,6′-dimethylbiphenyl-4-carboxamide] as the compound, how does the EC50 read?
The EC50 was 236 nM.

O=C(NCCc1c[nH]c2ccc(Cl)cc12)c1ccccc1-c1ccccc1Cl [Cpd054, 2′-chloro-N-(2-(5-chloro-1H-indol-3-yl)ethyl)biphenyl-2-carboxamide] was tested. Which EC50 did it give?
The EC50 was 170 nM.

For N#Cc1cccc(-c2ccccc2C(=O)NCCc2c[nH]c3ccc(Cl)cc23)c1 [Cpd048, N-(2-(5-chloro-1H-indol-3-yl)ethyl)-3′-cyanobiphenyl-2-carboxamide], which EC50 is on record?
The EC50 was 232 nM.

With O=C(NCCc1c[nH]c2ccc(Cl)cc12)c1ccc(-c2ccc(O)cc2)cc1 [Cpd014, N-(2-(5-chloro-1H-indol-3-yl)ethyl)-4′-hydroxybiphenyl-4-carboxamide] as the compound, how does the EC50 read?
Its EC50 is 57 nM.

O=C(NCCc1c[nH]c2ccc(Cl)cc12)c1cccc(-c2ccccc2Cl)c1 [Cpd055, 2′-chloro-N-(2-(5-chloro-1H-indol-3-yl)ethyl)biphenyl-3-carboxamide] was tested. Which EC50 did it give?
The EC50 was 158 nM.

Which EC50 does the source give for O=C(NCCc1c[nH]c2ccc(Cl)cc12)c1ccc(-c2ccc(Cl)cc2)cc1 [Cpd061, 4′-chloro-N-(2-(5-chloro-1H-indol-3-yl)ethyl)biphenyl-4-carboxamide] here?
Its EC50 is 111 nM.

Which EC50 does the source give for N#Cc1cccc(-c2cccc(C(=O)NCCc3c[nH]c4ccc(Cl)cc34)c2)c1 [Cpd049, N-(2-(5-chloro-1H-indol-3-yl)ethyl)-3′-cyanobiphenyl-3-carboxamide] here?
Its EC50 is 61 nM.

Which EC50 does the source give for O=C(NCCc1c[nH]c2ccc(Cl)cc12)c1ccc(-c2ccccc2)cc1 [Cpd002, N-(2-(5-chloro-1H-indol-3-yl)ethyl)biphenyl-4-carboxamide] here?
The EC50 was 130 nM.

For O=C(NCCc1c[nH]c2ccc(Cl)cc12)c1ccc(-c2ccccc2)nn1 [Cpd075, N-(2-(5-chloro-1H-indol-3-yl)ethyl)-6-phenylpyridazine-3-carboxamide], which EC50 is on record?
Its EC50 is 81 nM.

How did the EC50 turn out when O=C(NCCc1c[nH]c2ccc(Cl)cc12)c1cccc(-c2ccc(Cl)cc2)c1 [Cpd060, 4′-chloro-N-(2-(5-chloro-1H-indol-3-yl)ethyl)biphenyl-3-carboxamide] was run?
Its EC50 is 159 nM.

For COc1ccc(-c2cccc(C(=O)NCCc3c[nH]c4ccc(Cl)cc34)c2)cc1 [Cpd033, N-(2-(5-chloro-1H-indol-3-yl)ethyl)-4′-methoxybiphenyl-3-carboxamide], which EC50 is on record?
Its EC50 is 223 nM.

With Cc1ccc(-c2ccccc2C(=O)NCCc2c[nH]c3ccc(Cl)cc23)cc1C [Cpd071, N-(2-(5-chloro-1H-indol-3-yl)ethyl)-3′,4′-dimethylbiphenyl-2-carboxamide] as the compound, how does the EC50 read?
Its EC50 is 546 nM.

Which EC50 does the source give for O=C(NCCc1c[nH]c2ccc(F)cc12)c1ccnc(N2CCOCC2)c1 [Cpd007, N-(2-(5-fluoro-1H-indol-3-yl)ethyl)-2-morpholinoisonicotinamide] here?
Its EC50 is 1080 nM.
